Data on 17 compounds can be found in US11648254B2 (Kumquat Biosciences Inc., priority 2021, dated 2023).

In experiment [1] the test system is NCI-H1975 cells (EGFR T790M L858R). As to the kind of experiment: EGFR-SOS cellular inhibition assay (CellTiter-Glo, 3D). Particulars: Homo sapiens. In kind it is cell-based. (In general: Cellular ATP, detected with luciferase, serves as a proxy for viable cell number.)
The subject of experiment [2] is MIA PaCa-2 cells (K-Ras G12C). Nature of the experiment: Ras-SOS cellular growth inhibition assay (CellTiter-Glo, 3D). Particulars: Homo sapiens. In kind it is cell-based. Put shortly: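 MIA PaCa-2 cells grown in ultra-low-attachment plates (3D) in DMEM/Ham's F12 with 10% FCS and 2.5% horse serum, treated the day after seeding with a 9-point 3-fold compound series for about 5 days. Viability by CellTiter-Glo luminescence; IC50 from four-parameter fit.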

The next experiment has as its target SOS1 (Homo sapiens (Human), UniProt Q07889). As to the kind of experiment: Ras-SOS interaction assay (HTRF). In kind it is biochemical. A general note: Time-resolved FRET reads energy transfer from a long-lived donor to a nearby acceptor.
Setting [3] is: 120 h, NCI-H1975, 3D proliferation, about 5 days, read-out: Bio-Cell-Prolif-3D (H1975 IC50).
[4] abbreviates: NCI-H1975, EGFR T790M L858R, read-out: IC50 in inhibiting growth of NCI-H1975 cell line.
[5] abbreviates: MIA PaCa-2, 120 h, MIA PaCa-2, 3D proliferation, about 5 days, read-out: Bio-Cell-Prolif-3D (MiaPaca2 IC50).
Where [6] appears, read: K-RasG13D utilized, read-out: IC50 inhibition of SOS.
Setting [7] is: K-RasG13D, read-out: IC50 value against SOS1.
Setting [8] is: MIA PaCa-2, MIA PaCa-2, read-out: IC50 in inhibiting MIA PaCa-2 cell growth.

Read-outs that look alike come from different tables or passages of the source.

SOS1, sequence (Q07889 564-1049): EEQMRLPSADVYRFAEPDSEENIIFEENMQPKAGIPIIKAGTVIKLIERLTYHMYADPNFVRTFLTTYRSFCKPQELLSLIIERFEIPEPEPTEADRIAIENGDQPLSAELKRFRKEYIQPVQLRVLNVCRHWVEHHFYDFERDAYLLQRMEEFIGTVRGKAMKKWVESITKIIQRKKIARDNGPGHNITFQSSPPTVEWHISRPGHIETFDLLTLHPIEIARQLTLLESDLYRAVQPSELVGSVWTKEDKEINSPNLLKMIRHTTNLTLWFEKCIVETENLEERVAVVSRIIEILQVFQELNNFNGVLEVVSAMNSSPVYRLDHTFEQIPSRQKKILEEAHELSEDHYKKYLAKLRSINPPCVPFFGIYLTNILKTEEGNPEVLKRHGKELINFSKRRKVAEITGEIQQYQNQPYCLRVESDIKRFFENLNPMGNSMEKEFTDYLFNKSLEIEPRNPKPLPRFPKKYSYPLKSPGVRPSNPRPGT

With `Cc1nc(N[C@H](C)c2cccc(C(F)(F)F)c2F)c2cc(C3CCS(=O)(=O)CC3)c(Cl)nc2n1` [Compound 262, (R)-4-(7-chloro-4-((1-(2-fluoro-3-(trifluoromethyl)phenyl)ethyl)amino)-2-methylpyrido[2,3-d]pyrimidin-6-yl)tetrahydro-2H-thiopyran 1,1-dioxide], the IC50 in experiment [1] (setting [3]) is at most 1000 nM; in experiment [1] (setting [4]), under 500 nM; in experiment [2] (setting [5]), at most 1000 nM; on SOS1 (setting [6]), under 100 nM; on SOS1 (setting [7]) it was under 50 nM.

On to `C[C@H](O)C(F)(F)c1cccc([C@@H](C)Nc2ncnc3nc(Cl)c(C4(C#N)CC4)cc23)c1` [Compound 265, 1-(7-chloro-4-(((R)-1-(3-((S)-1,1-difluoro-2-hydroxypropyl)phenyl)ethyl)amino)pyrido[2,3-d]pyrimidin-6-yl) cyclopropane-1-carbonitrile], for which the IC50 in experiment [1] (setting [3]) is at most 1000 nM; in experiment [1] (setting [4]) it was under 500 nM; in experiment [2] (setting [5]), at most 1000 nM; in experiment [2] (setting [8]), under 500 nM; on SOS1 (setting [6]) it was under 100 nM; at SOS1 (setting [7]), under 50 nM.

`COc1nc2nc(C)nc(N[C@H](C)c3cccc(C(F)(F)C4CN(C)C4)c3)c2cc1N1CCS(=O)(=O)CC1` [Compound 272, (R)-4-(4-((1-(3-(difluoro(1-methylazetidin-3-yl)methyl)phenyl)ethyl)amino)-7-methoxy-2-methylpyrido[2,3-d]pyrimidin-6-yl)thiomorpholine 1,1-dioxide]: the IC50 is at most 1000 nM in experiment [1] (setting [3]), under 500 nM in experiment [1] (setting [4]), at most 1000 nM in experiment [2] (setting [5]) and under 50 nM on SOS1 (setting [7]).

With `COc1nc2nc(C)nc(N[C@H](C)c3cccc(C(F)(F)F)c3F)c2cc1C1CCN(C(=O)CN(C)C)CC1` [Compound 302, (R)-2-(dimethylamino)-1-(4-(4-((1-(2-fluoro-3-(trifluoromethyl)phenyl)ethyl)amino)-7-methoxy-2-methylpyrido[2,3-d]pyrimidin-6-yl)piperidin-1-yl)ethan-1-one], the IC50 in experiment [1] (setting [3]) was at most 1000 nM; in experiment [1] (setting [4]), under 500 nM; in experiment [2] (setting [5]) it was at most 1000 nM; at SOS1 (setting [6]) it was under 100 nM; on SOS1 (setting [7]), under 50 nM.

For `Cc1nc(N[C@H](C)c2cccc(C(F)F)c2F)c2cc(C3CCN(C)CC3)c(OC3CNC3)nc2n1` [Compound 253, (R)-7-(azetidin-3-yloxy)-N-(1-(3-(difluoromethyl)-2-fluorophenyl)ethyl)-2-methyl-6-(1-methylpiperidin-4-yl)pyrido[2,3-d] pyrimidin-4-amine], the IC50 in experiment [1] (setting [3]) is 1000 to 10000 nM; in experiment [2] (setting [5]) it was 1000 to 10000 nM; at SOS1 (setting [6]) it was under 100 nM; at SOS1 (setting [7]), under 50 nM.

`Cc1nc(N[C@H](C)c2cccc(C(F)F)c2F)c2cc(S(=O)(=O)C3CCN(C)CC3)c(Cl)nc2n1` [Compound 132, (R)-7-chloro-N-(1-(3-(difluoromethyl)-2-fluorophenyl)ethyl)-2-methyl-6-((1-methylpiperidin-4-yl)sulfonyl)pyrido[2,3-d]pyrimidin-4-amine]: the IC50 was at most 1000 nM in experiment [1] (setting [3]); under 500 nM in experiment [1] (setting [4]); at most 1000 nM in experiment [2] (setting [5]); under 500 nM in experiment [2] (setting [8]); under 50 nM on SOS1 (setting [7]).

For `COc1nc2nc(C)nc(N[C@H](C)c3cccc(C(F)F)c3F)c2cc1C1CCN(C(C)C)CC1` [Compound 112, (R)-N-(1-(3-(difluoromethyl)-2-fluorophenyl)ethyl)-6-(1-isopropylpiperidin-4-yl)-7-methoxy-2-methylpyrido[2,3-d]pyrimidin-4-amine], the IC50 in experiment [1] (setting [3]) was at most 1000 nM; in experiment [1] (setting [4]) it was under 500 nM; in experiment [2] (setting [5]) it was at most 1000 nM; in experiment [2] (setting [8]) it was under 500 nM; on SOS1 (setting [6]) it was under 100 nM; at SOS1 (setting [7]), under 50 nM.

`Cc1nc(N[C@H](C)c2cccc(C(F)F)c2F)c2cc(C3(C#N)CC3)c(OC[C@@H]3CC(F)(F)CN3C)nc2n1` [Compound 296, 1-(7-(((S)-4,4-difluoro-1-methylpyrrolidin-2-yl)methoxy)-4-(((R)-1-(3-(difluoromethyl)-2-fluorophenyl)ethyl)amino)-2-methylpyrido[2,3-d]pyrimidin-6-yl)cyclopropane-1-carbonitrile]: the IC50 in experiment [1] (setting [3]) is at most 1000 nM; in experiment [2] (setting [5]), 1000 to 10000 nM; at SOS1 (setting [6]), under 100 nM.

With `COc1nc2nc(C)nc(N[C@H](C)c3cccc(C(F)(F)C(C)(C)O)c3F)c2cc1C1CCS(=O)(=O)CC1` [Compound 321, (R)-4-(4-((1-(3-(1,1-difluoro-2-hydroxy-2-methylpropyl)-2-fluorophenyl)ethyl)amino)-7-methoxy-2-methylpyrido[2,3-d]pyrimidin-6-yl)tetrahydro-2H-thiopyran 1,1-dioxide], the IC50 in experiment [1] (setting [3]) is at most 1000 nM; in experiment [1] (setting [4]) it was under 500 nM; in experiment [2] (setting [5]), at most 1000 nM; on SOS1 (setting [6]) it was under 100 nM; on SOS1 (setting [7]), under 50 nM.

With `CC(C)N1CCC(C(F)(F)c2cccc([C@@H](C)Nc3ncnc4nc(Cl)c(N5CCN(C(C)C)CC5)cc34)c2F)CC1` [Compound 224, (R)-7-chloro-N-(1-(3-(difluoro(1-isopropylpiperidin-4-yl)methyl)-2-fluorophenyl)ethyl)-6-(4-isopropylpiperazin-1-yl)pyrido[2,3-d]pyrimidin-4-amine], the IC50 in experiment [1] (setting [3]) is at most 1000 nM; in experiment [1] (setting [4]), under 500 nM; in experiment [2] (setting [5]), at most 1000 nM; in experiment [2] (setting [8]) it was under 500 nM; at SOS1 (setting [6]), under 100 nM; on SOS1 (setting [7]), under 50 nM.

For the compound `Cc1nc(N[C@H](C)c2cccc(C(F)F)c2F)c2cc(N3CCS(=O)(=O)CC3)c(Cl)nc2n1` [Compound 259, (R)-4-(7-chloro-4-((1-(3-(difluoromethyl)-2-fluorophenyl)ethyl)amino)-2-methylpyrido[2,3-d]pyrimidin-6-yl)thiomorpholine 1,1-dioxide], the IC50 in experiment [1] (setting [3]) was at most 1000 nM; in experiment [1] (setting [4]) it was under 500 nM; in experiment [2] (setting [5]) it was at most 1000 nM; in experiment [2] (setting [8]) it was under 500 nM; on SOS1 (setting [6]), under 100 nM; on SOS1 (setting [7]) it was under 50 nM.

Take `Cc1nc(N[C@H](C)c2cccc(C(F)F)c2F)c2cc(C3CCS(=O)(=O)CC3)c(Cl)nc2n1` [Compound 389, (R)-4-(7-chloro-4-((1-(3-(difluoromethyl)-2-fluorophenyl)ethyl)amino)-2-methylpyrido[2,3-d]pyrimidin-6-yl)tetrahydro-2H-thiopyran 1,1-dioxide]: the IC50 is at most 1000 nM in experiment [1] (setting [3]); under 500 nM in experiment [1] (setting [4]); at most 1000 nM in experiment [2] (setting [5]); under 500 nM in experiment [2] (setting [8]); under 100 nM at SOS1 (setting [6]); under 50 nM on SOS1 (setting [7]).

In the case of `C[C@@H](Nc1ncnc2nc(OCCN(C)C)c(C3CCS(=O)(=O)CC3)cc12)c1cccc(C(F)F)c1F` [Compound 251, (R)-4-(4-((1-(3-(difluoromethyl)-2-fluorophenyl)ethyl)amino)-7-(2-(dimethylamino)ethoxy)pyrido[2,3-d]pyrimidin-6-yl)tetrahydro-2H-thiopyran 1,1-dioxide], the IC50 is at most 1000 nM in experiment [1] (setting [3]); under 500 nM in experiment [1] (setting [4]); 1000 to 10000 nM in experiment [2] (setting [5]); under 100 nM on SOS1 (setting [6]); under 50 nM on SOS1 (setting [7]).

Turning to `CC(C)N1CCN(c2cc3c(N[C@H](C)c4cccc(C(F)(F)F)c4F)ncnc3nc2Cl)CC1` [Compound 394, (R)-7-chloro-N-(1-(2-fluoro-3-(trifluoromethyl)phenyl)ethyl)-6-(4-isopropylpiperazin-1-yl)pyrido[2,3-d] pyrimidin-4-amine], the IC50 in experiment [1] (setting [3]) is at most 1000 nM; in experiment [1] (setting [4]), under 500 nM; in experiment [2] (setting [5]), at most 1000 nM; in experiment [2] (setting [8]), under 500 nM; on SOS1 (setting [6]) it was under 100 nM; at SOS1 (setting [7]) it was under 50 nM.

Consider `COc1nc2nc(C)nc(N[C@H](C)c3cccc(C(F)(F)C(C)(C)OC4CN(C(C)C)C4)c3F)c2cc1N1CCN(C(C)C)CC1` [Compound 242, (R)-N-(1-(3-(1,1-difluoro-2-((1-isopropylazetidin-3-yl)oxy)-2-methylpropyl)-2-fluorophenyl)ethyl)-6-(4-isopropylpiperazin-1-yl)-7-methoxy-2-methylpyrido[2,3-d]pyrimidin-4-amine], for which the IC50 in experiment [1] (setting [3]) was at most 1000 nM; in experiment [1] (setting [4]), under 500 nM; in experiment [2] (setting [5]) it was at most 1000 nM; in experiment [2] (setting [8]), under 500 nM; at SOS1 (setting [6]), under 100 nM; on SOS1 (setting [7]) it was under 50 nM.

Consider `CC(C)N1CCC(c2cc3c(N[C@H](C)c4cccc(C(F)(F)C5CCN(C(C)C)CC5)c4F)ncnc3nc2Cl)CC1` [Compound 218, (R)-7-chloro-N-(1-(3-(difluoro(1-isopropylpiperidin-4-yl)methyl)-2-fluorophenyl)ethyl)-6-(1-isopropylpiperidin-4-yl)pyrido[2,3-d]pyrimidin-4-amine], for which the IC50 in experiment [1] (setting [3]) was at most 1000 nM; in experiment [1] (setting [4]), under 500 nM; in experiment [2] (setting [5]), at most 1000 nM; in experiment [2] (setting [8]), under 500 nM; on SOS1 (setting [6]), under 100 nM; at SOS1 (setting [7]), under 50 nM.

On to `COc1nc2nc(C)nc(N[C@H](C)c3cccc(C(F)(F)C(C)(C)O)c3)c2cc1N1CCN(C)CC1` [Compound 324, (R)-1,1-difluoro-1-(3-(1-((7-methoxy-2-methyl-6-(4-methylpiperazin-1-yl)pyrido[2,3-d]pyrimidin-4-yl)amino)ethyl)phenyl)-2-methylpropan-2-ol], for which the IC50 was at most 1000 nM in experiment [1] (setting [3]); under 500 nM in experiment [1] (setting [4]); at most 1000 nM in experiment [2] (setting [5]); under 500 nM in experiment [2] (setting [8]); under 100 nM at SOS1 (setting [6]); under 50 nM on SOS1 (setting [7]).

A word on the IC50: it is the midpoint of a concentration-inhibition curve.
